The nature of this data set: Body weight in the hairless rat study. It counts as in vivo, hairless rats. The method, then:
To do this Calcitriol was used as the reference product at 0.01% and compound A was used as the test product at 1% and 0.1% (100 μg/cm^2 and 10 μg/cm^2, respectively). A Control Group was included, administered only with the vehicle (absolute ethanol).
The treatments were administered topically, once a day for 10 days (100 μg/side/animal). The animals were weighed on a daily basis throughout the study and the grade of erythema was evaluated (0=Absence of erythema, 1=Low grade erythema, 3=High grade erythema). On the last day of the study, day 11, the amount of corneous material extracted from the epidermis of the animals was evaluated.

Take `C=C1C(=O)O[C@H](CCc2ccc(OC)cc2)[C@@H]1C` [Compound A]: the Body weight reads like this: (Compound A 0.1% topical once a day, Baseline) 0.0 ± 0.00 g; (Compound A 0.1% topical once a day, Day 2) 0.0 ± 0.00 g; (Compound A 0.1% topical once a day, Day 3) 0.0 ± 0.00 g; (Compound A 0.1% topical once a day, Day 4) 0.0 ± 0.00 g; (Compound A 0.1% topical once a day, Day 5) 0.0 ± 0.00 g; (Compound A 0.1% topical once a day, Day 6) 0.0 ± 0.00 g. The compound further yielded a Body weight (Compound A 0.1% topical once a day, Day 7) of 0.0 ± 0.00 g; a Body weight (Compound A 0.1% topical once a day, Day 8) of 0.0 ± 0.00 g; a Body weight (Compound A 0.1% topical once a day, Day 9) of 0.0 ± 0.00 g; a Body weight (Compound A 0.1% topical once a day, Day 10) of 0.0 ± 0.00 g; a Body weight (Compound A 0.1% topical once a day, Day 11) of 0.0 ± 0.00 g; a Body weight (Compound A 1% topical once a day, Baseline) of 0.0 ± 0.00 g. This compound yielded a Body weight (Compound A 1% topical once a day, Day 2) of 1.0 ± 0.00 g; a Body weight (Compound A 1% topical once a day, Day 3) of 1.0 ± 0.00 g; a Body weight (Compound A 1% topical once a day, Day 4) of 1.2 ± 0.11 g; a Body weight (Compound A 1% topical once a day, Day 5) of 1.3 ± 0.17 g; a Body weight (Compound A 1% topical once a day, Day 6) of 1.5 ± 0.22 g; a Body weight (Compound A 1% topical once a day, Day 7) of 1.5 ± 0.22 g. For the same compound, the Body weight amounted to 1.2 ± 0.40 g (Compound A 1% topical once a day, Day 8); 0.9 ± 0.15 g (Compound A 1% topical once a day, Day 9); 0.9 ± 0.15 g (Compound A 1% topical once a day, Day 10); 1.2 ± 0.17 g (Compound A 1% topical once a day, Day 11).

Values taken from patent US20090149531A1, “CHEMICAL COMPOSITION DERIVED FROM P-HYDROXYPHENYL PROPIONIC ACID FOR THE TREATMENT OF PSORIASIS” (APOTEKNOS PARA LA PIEL, S.L., priority 2007, published 2009).
